Laboratory results: patent US11767310B2, “Nicotinamide RIPK1 inhibitors” (AbbVie Inc., priority 2021, dated 2023)
Where two headings read alike, the source gives them in different places.

How the values were obtained:
Test in all cases: Kinase binding screen
Details in all cases: read-out: Percent Control at 100 nM Compound Concentration
KIT-autoinhibited = KIT-autoinhibited (Homo sapiens (Human), UniProt P10721)
KIT(D816V) = KIT(D816V) (Homo sapiens (Human), UniProt P10721, D816V)
EGFR(G719C) = EGFR(G719C) (Homo sapiens (Human), UniProt P00533, G719C)
EGFR(G719C), sequence (P00533 25-1210 G719C): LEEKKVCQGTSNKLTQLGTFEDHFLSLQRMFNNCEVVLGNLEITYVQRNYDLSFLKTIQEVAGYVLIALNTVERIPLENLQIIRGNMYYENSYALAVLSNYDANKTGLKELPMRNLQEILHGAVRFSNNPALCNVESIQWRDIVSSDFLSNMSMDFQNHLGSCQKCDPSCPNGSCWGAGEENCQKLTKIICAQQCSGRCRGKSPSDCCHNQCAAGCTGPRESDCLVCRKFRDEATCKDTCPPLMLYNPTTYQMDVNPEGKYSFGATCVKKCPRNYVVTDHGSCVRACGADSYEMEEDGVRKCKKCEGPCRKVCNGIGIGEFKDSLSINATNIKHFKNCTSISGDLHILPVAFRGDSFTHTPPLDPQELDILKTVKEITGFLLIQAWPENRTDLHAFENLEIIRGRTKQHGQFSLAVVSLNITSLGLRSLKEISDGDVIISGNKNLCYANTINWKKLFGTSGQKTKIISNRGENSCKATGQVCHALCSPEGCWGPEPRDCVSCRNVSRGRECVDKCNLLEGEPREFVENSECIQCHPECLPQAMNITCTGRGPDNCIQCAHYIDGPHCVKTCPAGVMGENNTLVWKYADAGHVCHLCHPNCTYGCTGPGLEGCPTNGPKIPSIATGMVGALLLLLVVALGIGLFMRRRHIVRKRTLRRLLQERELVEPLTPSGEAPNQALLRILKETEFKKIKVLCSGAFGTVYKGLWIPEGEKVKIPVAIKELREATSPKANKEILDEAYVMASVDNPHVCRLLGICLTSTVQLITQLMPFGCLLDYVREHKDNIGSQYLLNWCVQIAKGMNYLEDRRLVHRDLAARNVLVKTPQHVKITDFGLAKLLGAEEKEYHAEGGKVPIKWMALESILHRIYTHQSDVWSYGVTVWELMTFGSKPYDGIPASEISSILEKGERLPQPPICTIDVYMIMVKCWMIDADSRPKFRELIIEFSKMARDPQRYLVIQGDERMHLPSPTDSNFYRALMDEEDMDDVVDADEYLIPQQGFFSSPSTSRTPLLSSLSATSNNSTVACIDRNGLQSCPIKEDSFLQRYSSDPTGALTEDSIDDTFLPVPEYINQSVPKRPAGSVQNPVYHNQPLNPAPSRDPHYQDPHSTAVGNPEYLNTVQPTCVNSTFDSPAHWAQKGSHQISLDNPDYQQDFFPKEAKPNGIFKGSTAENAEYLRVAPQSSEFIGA

IKK-alpha = IKK-alpha (Homo sapiens (Human), UniProt O15111)
ALK(L1196M) = ALK(L1196M) (Homo sapiens (Human), UniProt Q9UM73, L1196M)
TAOK1 = TAOK1 (Homo sapiens (Human), UniProt Q7L7X3)
TAOK1, sequence (Q7L7X3 whole entry): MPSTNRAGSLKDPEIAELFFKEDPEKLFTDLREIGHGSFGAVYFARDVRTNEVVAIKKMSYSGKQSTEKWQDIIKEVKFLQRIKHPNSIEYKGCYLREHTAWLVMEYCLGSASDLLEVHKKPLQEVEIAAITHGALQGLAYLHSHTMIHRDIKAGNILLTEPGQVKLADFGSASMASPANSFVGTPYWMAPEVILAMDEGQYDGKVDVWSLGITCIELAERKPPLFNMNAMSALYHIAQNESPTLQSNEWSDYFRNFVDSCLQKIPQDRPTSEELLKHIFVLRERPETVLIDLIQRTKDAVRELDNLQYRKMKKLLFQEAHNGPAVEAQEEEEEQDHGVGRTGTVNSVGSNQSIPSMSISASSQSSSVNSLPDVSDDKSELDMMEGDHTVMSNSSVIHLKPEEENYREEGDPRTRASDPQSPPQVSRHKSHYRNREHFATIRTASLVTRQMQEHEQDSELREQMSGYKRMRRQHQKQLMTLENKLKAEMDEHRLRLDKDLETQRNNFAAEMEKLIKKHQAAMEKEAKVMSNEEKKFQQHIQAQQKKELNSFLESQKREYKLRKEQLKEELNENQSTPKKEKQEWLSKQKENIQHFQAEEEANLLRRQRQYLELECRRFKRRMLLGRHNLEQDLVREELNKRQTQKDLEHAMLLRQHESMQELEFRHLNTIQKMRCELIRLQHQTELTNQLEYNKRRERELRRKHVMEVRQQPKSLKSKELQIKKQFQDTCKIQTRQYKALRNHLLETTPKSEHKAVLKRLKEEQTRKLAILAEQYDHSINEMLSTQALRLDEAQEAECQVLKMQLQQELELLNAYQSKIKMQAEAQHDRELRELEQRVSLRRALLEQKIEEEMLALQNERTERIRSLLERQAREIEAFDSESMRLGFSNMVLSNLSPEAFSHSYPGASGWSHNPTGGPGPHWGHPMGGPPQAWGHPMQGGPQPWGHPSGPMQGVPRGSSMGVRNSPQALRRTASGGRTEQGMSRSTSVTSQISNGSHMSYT

RIOK2 = RIOK2 (Homo sapiens (Human), UniProt Q9BVS4)
[1] = target: RSK1(Kin.Dom.2-C-terminal) (Homo sapiens (Human), UniProt Q15418)
RSK1(Kin.Dom.2-C-terminal), sequence (Q15418 418-675): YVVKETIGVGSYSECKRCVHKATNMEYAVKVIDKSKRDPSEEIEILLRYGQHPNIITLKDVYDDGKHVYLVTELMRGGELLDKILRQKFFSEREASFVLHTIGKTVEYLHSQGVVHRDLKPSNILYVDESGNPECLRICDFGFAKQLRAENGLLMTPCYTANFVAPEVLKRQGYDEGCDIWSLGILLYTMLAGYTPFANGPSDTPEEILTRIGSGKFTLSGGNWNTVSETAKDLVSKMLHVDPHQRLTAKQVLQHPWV

SLK = SLK (Homo sapiens (Human), UniProt Q9H2G2)
CAMKK1 = CAMKK1 (Homo sapiens (Human), UniProt Q8N5S9)
CSF1R = CSF1R (Homo sapiens (Human), UniProt P07333)
NIK = NIK (Homo sapiens (Human), UniProt Q99558)
EPHA7 = EPHA7 (Homo sapiens (Human), UniProt Q15375)
EPHA7, sequence (Q15375 28-998): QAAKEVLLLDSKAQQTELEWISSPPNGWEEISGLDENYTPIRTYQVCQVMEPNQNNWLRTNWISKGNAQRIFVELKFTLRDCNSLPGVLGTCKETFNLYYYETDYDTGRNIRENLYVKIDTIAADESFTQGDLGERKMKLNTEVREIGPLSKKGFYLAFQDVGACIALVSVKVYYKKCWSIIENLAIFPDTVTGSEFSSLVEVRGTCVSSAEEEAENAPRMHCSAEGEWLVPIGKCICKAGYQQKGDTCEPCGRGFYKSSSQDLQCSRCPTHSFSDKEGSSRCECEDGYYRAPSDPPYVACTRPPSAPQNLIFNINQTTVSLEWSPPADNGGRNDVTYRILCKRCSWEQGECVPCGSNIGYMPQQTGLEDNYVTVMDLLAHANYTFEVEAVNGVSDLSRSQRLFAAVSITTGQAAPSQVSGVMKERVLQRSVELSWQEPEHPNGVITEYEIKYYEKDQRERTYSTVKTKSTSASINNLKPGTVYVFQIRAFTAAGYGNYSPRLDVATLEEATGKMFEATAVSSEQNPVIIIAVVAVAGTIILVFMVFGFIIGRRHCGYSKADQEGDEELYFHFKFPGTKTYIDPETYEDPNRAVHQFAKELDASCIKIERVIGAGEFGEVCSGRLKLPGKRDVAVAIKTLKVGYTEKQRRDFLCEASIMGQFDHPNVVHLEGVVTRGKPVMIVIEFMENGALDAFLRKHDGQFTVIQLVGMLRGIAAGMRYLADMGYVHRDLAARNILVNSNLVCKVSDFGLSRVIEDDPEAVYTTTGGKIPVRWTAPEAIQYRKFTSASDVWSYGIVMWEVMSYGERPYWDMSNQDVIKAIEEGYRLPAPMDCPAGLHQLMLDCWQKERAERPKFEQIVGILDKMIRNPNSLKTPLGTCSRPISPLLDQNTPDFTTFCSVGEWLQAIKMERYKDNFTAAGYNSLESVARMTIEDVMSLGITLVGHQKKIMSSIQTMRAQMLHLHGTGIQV

AAK1 = AAK1 (Homo sapiens (Human), UniProt Q2M2I8)
VEGFR2 = VEGFR2 (Homo sapiens (Human), UniProt P35968)
[2] = target: ABL1(F317L)-nonphosphorylated (Homo sapiens (Human), UniProt P00519, F317L)
BRAF(V600E) = BRAF(V600E) (Homo sapiens (Human), UniProt P15056, V600E)
PRP4 = PRP4 (Homo sapiens (Human), UniProt Q13523)
Description: (§1) The screening method uses an immobilized ligand on a solid support, a DNA-tagged kinase, and a test compound. Test compounds that bind the kinase active site and directly (sterically) or indirectly (allosterically) prevent kinase binding to an immobilized ligand on a solid support will reduce the amount of kinase captured on the solid support. […] Screening “hits” are identified by measuring the amount of kinase captured in test compound versus control samples by using a quantitative, precise and ultra-sensitive qPCR method that detects the DNA label associated with the kinase. In a similar manner, dissociation constants (Kd) for test compound-kinase interactions are calculated by measuring the amount of kinase captured on the solid support as a function of the test compound concentration.
(§2) For most assays, kinase-tagged T7 phage strains were grown in parallel in 24-well blocks in an E. coli host derived from the BL21 strain. E. coli were grown to log-phase and infected with T7 phage from a frozen stock (multiplicity of infection=0.4) and incubated with shaking at 32° C. until lysis (90-150 minutes). The lysates were centrifuged (6,000×g) and filtered ([…]) to remove cell debris. The remaining kinases were produced in HEK-293 cells and subsequently tagged with DNA for qPCR detection. Streptavidin-coated magnetic beads were treated with biotinylated small molecule ligands for 30 minutes at room temperature to generate affinity resins for kinase assays. The liganded beads were blocked with excess biotin and washed with blocking buffer (SeaBlock (Pierce), 1% BSA, 0.05% Tween 20, 1 mM DTT) to remove unbound ligand and to reduce non-specific phage binding. […] Test compounds were prepared as 40× stocks in 100% DMSO and directly diluted into the assay. All reactions were performed in polypropylene 384-well plates in a final volume of 0.02 mL. […] The kinase concentration in the eluates was measured by qPCR.
(§3) The compounds were screened at 100 nM concentration, and results for the binding interactions are shown below in Table D as percent control, where lower numbers indicate stronger hits. The calculation for percent control is shown below. The negative control was DMSO (100% control), and a control compound was used as positive control (0% control).

CDC2L5 = CDC2L5 (Homo sapiens (Human), UniProt Q14004)
CDC2L5, sequence (Q14004 whole entry, looked up): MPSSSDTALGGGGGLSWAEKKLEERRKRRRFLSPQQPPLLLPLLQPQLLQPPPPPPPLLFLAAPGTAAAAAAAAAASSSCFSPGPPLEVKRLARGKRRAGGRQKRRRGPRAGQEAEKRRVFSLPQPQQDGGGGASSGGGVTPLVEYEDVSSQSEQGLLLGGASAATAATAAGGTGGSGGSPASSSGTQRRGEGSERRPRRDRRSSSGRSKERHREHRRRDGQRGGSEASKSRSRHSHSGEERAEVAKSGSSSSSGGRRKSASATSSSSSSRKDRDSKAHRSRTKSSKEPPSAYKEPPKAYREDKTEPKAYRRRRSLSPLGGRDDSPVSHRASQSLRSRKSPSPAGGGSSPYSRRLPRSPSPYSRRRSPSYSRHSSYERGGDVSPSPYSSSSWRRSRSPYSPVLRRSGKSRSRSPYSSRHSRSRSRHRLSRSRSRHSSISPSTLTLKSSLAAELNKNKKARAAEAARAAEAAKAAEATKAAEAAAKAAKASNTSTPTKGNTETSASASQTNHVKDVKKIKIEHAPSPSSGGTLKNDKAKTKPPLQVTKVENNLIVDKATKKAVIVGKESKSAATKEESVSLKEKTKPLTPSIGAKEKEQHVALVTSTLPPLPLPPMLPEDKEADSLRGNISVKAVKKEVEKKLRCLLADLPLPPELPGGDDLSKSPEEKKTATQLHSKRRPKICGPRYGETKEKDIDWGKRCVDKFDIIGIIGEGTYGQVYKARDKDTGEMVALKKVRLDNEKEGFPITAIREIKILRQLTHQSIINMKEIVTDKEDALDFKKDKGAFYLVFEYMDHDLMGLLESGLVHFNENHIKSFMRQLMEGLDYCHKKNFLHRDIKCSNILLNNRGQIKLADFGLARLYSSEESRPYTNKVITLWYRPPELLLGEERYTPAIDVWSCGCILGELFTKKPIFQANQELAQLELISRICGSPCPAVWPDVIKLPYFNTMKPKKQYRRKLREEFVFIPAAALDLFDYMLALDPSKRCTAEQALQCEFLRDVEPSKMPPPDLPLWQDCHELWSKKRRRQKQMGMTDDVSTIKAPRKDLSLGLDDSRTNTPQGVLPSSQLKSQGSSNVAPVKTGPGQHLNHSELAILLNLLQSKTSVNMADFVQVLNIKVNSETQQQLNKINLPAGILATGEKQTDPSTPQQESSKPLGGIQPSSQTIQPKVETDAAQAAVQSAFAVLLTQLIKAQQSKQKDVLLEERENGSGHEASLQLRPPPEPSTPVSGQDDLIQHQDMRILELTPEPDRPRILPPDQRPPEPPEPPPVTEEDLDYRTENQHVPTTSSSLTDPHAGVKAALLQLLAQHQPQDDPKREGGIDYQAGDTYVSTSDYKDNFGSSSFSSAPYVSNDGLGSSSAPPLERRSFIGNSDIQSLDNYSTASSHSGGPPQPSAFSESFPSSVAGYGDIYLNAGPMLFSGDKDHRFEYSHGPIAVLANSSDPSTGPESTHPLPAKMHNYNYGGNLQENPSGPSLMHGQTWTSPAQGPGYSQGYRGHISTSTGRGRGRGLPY
Description: as §1, §2, §3

PFCDPK1(P.falciparum) = PFCDPK1(P.falciparum) (Plasmodium falciparum (isolate 3D7), UniProt P62344)
Description: as §1, §2, §3

PFPK5(P.falciparum) = PFPK5(P.falciparum) (Plasmodium falciparum (isolate 3D7), UniProt P61075)
Description: as §1, §2, §3

CN(C[C@@H](O)Cc1ccccc1)C(=O)c1cncc(C#Cc2cnn(C(F)F)c2)c1 [Example 2, (S)-5-((1-(difluoromethyl)-1H-pyrazol-4-yl)ethynyl)-N-(2-hydroxy-3-phenylpropyl)-N-methylnicotinamide]
remaining activity at 0.1 µM (KIT-autoinhibited; KIT-autoinhibited): 94%
remaining activity at 0.1 µM (KIT(D816V); KIT(D816V)): 100%
remaining activity at 0.1 µM (EGFR(G719C); EGFR(G719C)): 100%
remaining activity at 0.1 µM (IKK-alpha; IKK-alpha): 100%
remaining activity at 0.1 µM (ALK(L1196M); ALK(L1196M)): 100%
remaining activity at 0.1 µM (TAOK1; TAOK1): 100%
remaining activity at 0.1 µM (RIOK2; RIOK2): 95%
remaining activity at 0.1 µM ([1]; RSK1(Kin.Dom.2-C-terminal)): 100%
remaining activity at 0.1 µM (SLK; SLK): 99%
remaining activity at 0.1 µM (CAMKK1; CAMKK1): 100%
remaining activity at 0.1 µM (CSF1R; CSF1R): 100%
remaining activity at 0.1 µM (NIK; NIK): 84%
remaining activity at 0.1 µM (EPHA7; EPHA7): 97%
remaining activity at 0.1 µM (AAK1; AAK1): 96%
remaining activity at 0.1 µM (VEGFR2; VEGFR2): 96%
remaining activity at 0.1 µM ([2]; ABL1(F317L)-nonphosphorylated): 100%
remaining activity at 0.1 µM (BRAF(V600E); BRAF(V600E)): 97%
remaining activity at 0.1 µM (PRP4): 89%
remaining activity at 0.1 µM (CDC2L5): 100%
remaining activity at 0.1 µM (PFCDPK1(P.falciparum)): 95%
remaining activity at 0.1 µM (PFPK5(P.falciparum)): 90%

CN(C[C@H](Cc1ccccc1)OP(=O)(O)O)C(=O)c1cncc(C#Cc2cnn(C(F)F)c2)c1 [Example 19, (S)-1-(5-((1-(difluoromethyl)-1H-pyrazol-4-yl)ethynyl)-N-methylnicotinamido)-3-phenylpropan-2-yl dihydrogen phosphate]
remaining activity at 0.1 µM (KIT-autoinhibited): 94%
remaining activity at 0.1 µM (KIT(D816V)): 100%
remaining activity at 0.1 µM (EGFR(G719C)): 77%
remaining activity at 0.1 µM (IKK-alpha): 99%
remaining activity at 0.1 µM (ALK(L1196M)): 100%
remaining activity at 0.1 µM (TAOK1): 100%
remaining activity at 0.1 µM (RIOK2): 95%
remaining activity at 0.1 µM [1]: 100%
remaining activity at 0.1 µM (SLK): 97%
remaining activity at 0.1 µM (CAMKK1): 100%
remaining activity at 0.1 µM (CSF1R): 100%
remaining activity at 0.1 µM (NIK): 88%
remaining activity at 0.1 µM (EPHA7): 96%
remaining activity at 0.1 µM (AAK1): 100%
remaining activity at 0.1 µM (VEGFR2): 97%
remaining activity at 0.1 µM [2]: 100%
remaining activity at 0.1 µM (BRAF(V600E)): 97%
remaining activity at 0.1 µM (PRP4): 82%
remaining activity at 0.1 µM (CDC2L5): 100%
remaining activity at 0.1 µM (PFCDPK1(P.falciparum)): 96%
remaining activity at 0.1 µM (PFPK5(P.falciparum)): 100%
